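Growth conditions: 96-well plates. Treatment: test compound, 48 hours, 5 concentrations. Analysis: linear interpolation between bracketing concentrations; unreached endpoints set to highest concentration. Here, GI50 denotes the concentration required for 50% inhibition of growth. The concentration for full growth arrest is given as TGI.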

Holding throughout (assay): growth of human tumour cells (NCI), 48 h
Experiment [1] concerns BT-549 breast.
Experiment [2] deals with DU-145 prostate.
Experiment [3] concerns HCT-116 colon.
Experiment [4] concerns MOLT-4 leukemia.
Experiment [5] has as its system NCI-H460 lung.
The subject of experiment [6] is SK-MEL-28 melanoma.
The test system of experiment [7] is SK-MEL-5 melanoma.
The test system of experiment [8] is SN12C renal.
For experiment [9], the system named is SNB-19 CNS.
For experiment [10], the system named is U251 CNS.

On to `COc1ccc(Cn2cc3c(c2)-c2oncc2CC3)cc1OC`, for which the GI50 in [1] was 0.344 µM; in experiment [2], 0.163 µM; in experiment [3], 0.193 µM; in experiment [4], 0.274 µM; in [5], 0.161 µM; in [6], 0.326 µM. For the same molecule, the GI50 was 0.229 µM in experiment [7], 0.331 µM in experiment [8], 0.258 µM in experiment [9] and 0.211 µM in experiment [10]. For the same molecule, the TGI in [1] is > 50 µM; in experiment [2] it was 0.544 µM; in [3], 8.57 µM; in [4], > 12.2 µM; in [5], 0.89 µM; in experiment [6] it was > 50 µM. The TGI in experiment [7] was 1.7 µM; in [8] it was > 50 µM; in experiment [9], > 50 µM; in experiment [10], > 28.1 µM.
With `O=C1c2ccccc2C(=O)c2c1ccc1c(=O)n(-c3ccccc3C(F)(F)F)nnc21`, the GI50 in experiment [1] is 1.81 µM; in experiment [2], 3.19 µM; in experiment [3] it was 1.85 µM; in [4], 1.53 µM; in experiment [5], 1.97 µM; in [6], 5.79 µM. The GI50 in experiment [7] is 1.67 µM; in [8], 2.23 µM; in [9] it was 2.68 µM; in experiment [10] it was 2.66 µM. The TGI in experiment [1] was 6.8 µM; in [2] it was > 100 µM; in experiment [3], 10.5 µM; in experiment [4], 8.12 µM; in [5], 5.07 µM; in experiment [6] it was > 100 µM. Further, the TGI was found to be 3.05 µM in experiment [7], 28.9 µM in experiment [8], 31.2 µM in experiment [9] and 17.9 µM in [10].
For `COc1c(O)cc2c(c1O)C(=O)C1=C(CCCC1)C2=O`, the TGI in experiment [1] was > 100 µM; in experiment [2] it was 74.3 µM; in experiment [3], 43.2 µM; in experiment [4], 23 µM; in [5] it was 73.4 µM; in experiment [6], 62 µM. The TGI was 66 µM in experiment [7], 58.3 µM in [8], 96.9 µM in experiment [9] and > 100 µM in [10].
Consider `CCOC(=O)c1c(NC(=O)c2ccccc2)sc2c3c(ccc12)OCN(C)C3`, for which the GI50 is 5.76 µM in [1]; 1.67 µM in [2]; 1.77 µM in [3]; 2.09 µM in experiment [4]; 1.87 µM in experiment [5]; 1.71 µM in experiment [6]. The GI50 in experiment [7] is 1.74 µM; in [8] it was 1.63 µM; in experiment [9], 1.56 µM; in [10] it was 1.68 µM. Further, the TGI in experiment [1] was found to be 19.5 µM; in [2], 3.12 µM; in [3], 3.27 µM; in experiment [4], 5.19 µM; in experiment [5], 3.53 µM; in experiment [6], 3.15 µM. Besides, the TGI in experiment [7] turned out to be 3.14 µM; in [8], 3.22 µM; in [9] it was 3.1 µM; in [10], 3.4 µM.
Turning to `CN(C)C=NC1CCC(C(C)(C)C)CC1` (stereo not given), the TGI in experiment [1] stood at 34 µM; in experiment [2], 61.3 µM; in experiment [3] it was 31.9 µM; in experiment [4], 32.2 µM; in experiment [5], 35.1 µM; in experiment [6], 29.4 µM. Further, the TGI was 31 µM in experiment [7], 34.6 µM in experiment [8], 39.9 µM in [9] and 31.2 µM in [10].
With `Cc1ccc(-c2nc3cc(Cl)c(Cl)cc3nc2C#N)cc1`, the GI50 was > 100 µM in experiment [1]; > 100 µM in experiment [2]; 90.3 µM in experiment [3]; > 100 µM in experiment [4]; > 100 µM in [5]; > 100 µM in experiment [6]. Moreover, the GI50 in experiment [7], in [8], in [9] and in experiment [10] was > 100 µM in each case. Besides, the TGI in experiment [1], in experiment [2], in experiment [3], in [4], in experiment [5] and in [6] was > 100 µM in each case. The TGI in experiment [7], in experiment [8], in experiment [9] and in [10] was > 100 µM in each case.
`COc1cc(/C=C/C(=O)/C=C/c2cc3ccc(Cl)cc3n(Cc3ccccc3)c2=O)ccc1O`: the GI50 is 1.69 µM in experiment [1]; 1.87 µM in experiment [2]; 0.768 µM in experiment [3]; 1.89 µM in experiment [4]; 1.89 µM in [5]; 1.85 µM in experiment [6]. In addition, the GI50 in experiment [7] is 1.69 µM; in [8], 1.95 µM; in experiment [9] it was 1.73 µM; in experiment [10] it was 1.17 µM. The TGI in [1] is 4.53 µM; in [2], 5.47 µM; in experiment [3] it was 2.15 µM; in experiment [4] it was > 100 µM; in experiment [5] it was 4.27 µM; in experiment [6] it was 5.53 µM. In addition, the TGI was 3.17 µM in experiment [7], 5.01 µM in experiment [8], 3.88 µM in experiment [9] and 2.55 µM in [10].
`Cc1nc(-c2cnc(NC(C)C)n(C)c2=O)ccc1Oc1ccnc(-c2cnn(C)c2)c1`: the GI50 in [1] is 12.7 µM; in [2], 33.2 µM; in [3], 4.67 µM; in experiment [4] it was 5.16 µM; in experiment [5], 13.2 µM; in experiment [6] it was 14.2 µM. Besides, the GI50 in experiment [7] is 4.59 µM; in experiment [8] it was 19.7 µM; in experiment [9], 25.2 µM; in experiment [10], 15.6 µM. The TGI in [1] was 70 µM; in experiment [2] it was > 100 µM; in experiment [3], > 100 µM; in experiment [4], 35.2 µM; in [5], > 100 µM; in experiment [6] it was > 100 µM. The TGI in experiment [7] was 19.5 µM; in [8] it was > 100 µM; in [9], > 100 µM; in [10], > 100 µM.
